This is an account of results in paper PMC12424613, “Analysis of the resistance level and target site resistance mechanisms of Echinochloa crus-galli to penoxsulam from Hubei Province, China” (PeerJ, 2025).

The target in this assay is T1, acetolactate synthase (ALS).
T1 construct: native ALS from leaf extract of susceptible population 18-NJ (ammonium sulfate precipitated, desalted; ALS1/ALS2/ALS3 copies not separated)
Put plainly: in vitro ALS activity assay (acetoin formation, […] nm) in desalted leaf enzyme extract. In kind it is biochemical, Echinochloa crus-galli.

As to `COc1cnc(OC)n2nc(NS(=O)(=O)c3c(OCC(F)F)cccc3C(F)(F)F)nc12` [penoxsulam], the IC50 (in general, the concentration that inhibits the measured activity by half) was 1230 nM.
